Measurements reported in US20240182945A1, “PRODUCTS FOR REGULATION OF EUKARYOTIC AND MICROBIAL CELLS GROWTH” (priority 2021, published 2024).
Values after ≈ are worked out from the molar mass of the structure shown. Read-outs that look alike come from different tables or passages of the source.

Tests used:
Format in all cases: cell-based
S. aureus = assay: Sensitivity of PP to antibiotics, standard serial microbroth-dilution method (Example 24); conditions: for MIC: Staphylococcus aureus
[1] = system: PP+MM within the biosample; assay: Presence of bacterial growth in the wells supplemented with amoxicillin; design: key: “+” - presence of bacterial growth, antibiotic is ineffective; “−”- absence of bacterial growth, antibiotic is effective
Procedure: Next, biosamples were plated to the wells of 48 well plate filled with Columbia+Pept Meat Agar supplemented with Amoxicillin. We modulated a QID, BID and TID administration of amoxicillin on PP+MM within the biosample. The following assumptions were made.
Next we evaluated Presence of bacterial growth in the wells supplemented with amoxicillin.

[2] = system: bacteria of endotracheal aspirate, sputum, BAL, wound swab from patients with ventilator associated pneumonia; assay: Signs of bacterial growth on multi-well agar test system supplemented with antibiotics (naked eye or microscopy)
Procedure: Endotracheal aspirate (n=3), sputum (n=3), BAL (n=2), wound swab (n=3) from patients with ventilator associated pneumonia were resuspended in PBS and 0.15 μL were plated on 24 well plate test system filled with Mixed medium (Columbia agar +Pepted Meat agar) (MM), Luria Broth (LB) agar, Pepted Meat agar (PMA), Columbia agar (CA), or Schaedler agar (SA).
Two wells were antibiotic free.
Biosamples were plated to the medium with a sterile swab with a slight pressure to the agar and making circular movements. Plates was incubated at 37 C and the analysis of the of microbial growth was monitored every 15 minutes from […] to 5 h, then hourly from 5 h to 8 h and then at 18 and 24 h post plating with a naked eye or with an AmScope microscope on 20× magnification with 12 mp camera.
Three methods (algorithms) how to analyze bacterial growth were used.
Method (Algorithm) #1. Lab technician, analyzed the appearance of bacterial growth by comparing the signs of bacterial growth in each well supplemented with antibiotic(s) at certain timepoint, with the signs of bacterial growth in the same well at previous time point(s).
Method (Algorithm)#2. Lab technician analyzed the appearance of bacterial growth by comparing the signs of bacterial growth in each well supplemented with antibiotic(s) with bacterial growth in antibiotic-free control
Method (Algorithm) #3. Lab technician analyzed the absence of bacterial growth in the wells in fixed time period of 3.0 h, 3.5 h; 4 h and 24 h.

[3] = system: C. albicans, non-albicans Candida spp. Aspergillus spp. in oral swabs from patients with oral candidiasis; assay: Signs of fungal growth on 12 well plate test system supplemented with antifungal antibiotics; conditions: naked eye examination, samples resistant to the antibiotic
Procedure: Oral swabs (n=6) from patients with confirmed oral candidiasis caused by C. albicans, non-albicans Candida spp. Aspergillus spp., were dissolved with PBS and 0.1 uL were plated on 12 well plate test system filled with Mixed Medium 1 (see above), Mixed Medium 2 (Sabouraud agar+Potato Dextrose Agar+vitamins B12+B7) (MM2), Sabouraud agar (SA), Potato Dextrose Agar (PDA), Sabouraud's Heart Infusion (SABHI) agar. 11 wells were filled with media supplemented with antibiotics (taken at mean concentration of each antibiotic achieved in lungs at different timpoints post drug administration)—Nystatin, Amphotericin B, Clotrimazole, Fluconazole, Isavuconazole, Terbinafin, Posaconazole, Voriconazole, Anidulafungin, Caspofungin, Micafungin. One well was antibiotic free.
Plates was incubated at 30 C and the analysis of the presence/absence of microbial growth was monitored every 15 minutes from […] to 5 h, then hourly from 5 h to 8 h and then at 18 and 24 h post plating with a naked eye.
Three methods (algorithms) how to analyze fungal growth were used.
Method (Algorithm) #1. Lab technician, analyzed the appearance of fungal growth by comparing the signs of fungal growth in each well supplemented with antibiotic(s) at certain timepoint, with the signs of funal growth in the same well at previous time point(s).
Method (Algorithm)#2. Lab technician analyzed the appearance of fungal growth by comparing the signs of fungal growth in each well supplemented with antibiotic(s) with fungal growth in antibiotic-free control
Method (Algorithm) #3. Lab technician analyzed the absence of fungal growth in the wells in fixed time period of 3.5 h; 5 h and 24 h.

[4] = Method (Algorithm) #1, MM1 medium
[5] = Method (Algorithm) #1, MM2 medium
[6] = Method (Algorithm) #1, PDA medium
[7] = Method (Algorithm) #1, SA (Sabouraud agar)
[8] = Method (Algorithm) #1, SABHI medium
[9] = Method (Algorithm) #2, MM1 medium
[10] = Method (Algorithm) #2, MM2 medium
[11] = Method (Algorithm) #2, PDA medium
[12] = Method (Algorithm) #2, SA (Sabouraud agar)
[13] = Method (Algorithm) #2, SABHI medium

Molecule: CC1(C)S[C@@H]2[C@H](NC(=O)[C@H](N)c3ccc(O)cc3)C(=O)N2[C@H]1C(=O)O [Amoxicillin]
- Sensitivity (CLSI interpretation) (S. aureus; Biosample 1, S. aureus): S
- Sensitivity (CLSI interpretation) (S. aureus; Biosample 2, S. aureus): I
- Sensitivity (CLSI interpretation) (S. aureus; Biosample 3, S. aureus): S
- MIC (S. aureus; Biosample 1, S. aureus): 0.25 µg/mL (≈ 0.684 µM)
- MIC (S. aureus; Biosample 2, S. aureus, read-out: MIC): 4 µg/mL (≈ 10.9 µM)
- MIC (S. aureus; Biosample 3, S. aureus, read-out: MIC): 2 µg/mL (≈ 5.47 µM)
- Presence of bacterial growth in the wells ([1]; Biosample 1 (PP S. aureus), C0-6 h): −
- Presence of bacterial growth in the wells ([1]; Biosample 1 (PP S. aureus), C0-12 h): −
- Presence of bacterial growth in the wells ([1]; Biosample 1 (PP S. aureus), C0-24 h): −
- Presence of bacterial growth in the wells ([1]; Biosample 2 (PP S. aureus), C0-6 h): −
- Presence of bacterial growth in the wells ([1]; Biosample 2 (PP S. aureus), C0-12 h): +
- Presence of bacterial growth in the wells ([1]; Biosample 2 (PP S. aureus), C0-24 h): +
- Presence of bacterial growth in the wells ([1]; Biosample 3 (PP S. aureus), C0-6 h): −
- Presence of bacterial growth in the wells ([1]; Biosample 3 (PP S. aureus), C0-12 h): −
- Presence of bacterial growth in the wells ([1]; Biosample 3 (PP S. aureus), C0-24 h): +

Molecule: Piperacillin-tazobactam
- Mean hour at which bacterial growth became visible on the wells supplemented with a certain antibiotic ([2]; microscopy examination, Method (Algorithm) #1, CA medium): 3.5 h
- Mean hour at which bacterial growth became visible on the wells supplemented with a certain antibiotic ([2]; microscopy examination, Method (Algorithm) #1, LB medium): 4 h
- Mean hour at which bacterial growth became visible on the wells supplemented with a certain antibiotic ([2]; microscopy examination, Method (Algorithm) #1, MM medium): 3.5 h
- Mean hour at which bacterial growth became visible on the wells supplemented with a certain antibiotic ([2]; microscopy examination, Method (Algorithm) #1, PMA medium): 3.5 h
- Mean hour at which bacterial growth became visible on the wells supplemented with a certain antibiotic ([2]; microscopy examination, Method (Algorithm) #1, SA medium): 3.5 h
- Mean hour at which bacterial growth became visible on the wells supplemented with a certain antibiotic ([2]; microscopy examination, Method (Algorithm) #2, CA medium): 3.5 h
- Mean hour at which bacterial growth became visible on the wells supplemented with a certain antibiotic ([2]; microscopy examination, Method (Algorithm) #2, LB medium): 4 h
- Mean hour at which bacterial growth became visible on the wells supplemented with a certain antibiotic ([2]; microscopy examination, Method (Algorithm) #2, MM medium): 4 h
- Mean hour at which bacterial growth became visible on the wells supplemented with a certain antibiotic ([2]; microscopy examination, Method (Algorithm) #2, PMA medium): 4 h
- Mean hour at which bacterial growth became visible on the wells supplemented with a certain antibiotic ([2]; microscopy examination, Method (Algorithm) #2, SA medium): 3.5 h
- Mean hour at which bacterial growth became visible on the wells supplemented with a certain antibiotic ([2]; naked eye examination, Method (Algorithm) #1, CA medium, samples resistant to the antibiotic): 3.5 h
- Mean hour at which bacterial growth became visible on the wells supplemented with a certain antibiotic ([2]; naked eye examination, Method (Algorithm) #1, LB medium, samples resistant to the antibiotic): 4 h
- Mean hour at which bacterial growth became visible on the wells supplemented with a certain antibiotic ([2]; naked eye examination, Method (Algorithm) #1, MM medium, samples resistant to the antibiotic): 3.5 h
- Mean hour at which bacterial growth became visible on the wells supplemented with a certain antibiotic ([2]; naked eye examination, Method (Algorithm) #1, PMA medium, samples resistant to the antibiotic): 3.5 h
- Mean hour at which bacterial growth became visible on the wells supplemented with a certain antibiotic ([2]; naked eye examination, Method (Algorithm) #1, SA medium, samples resistant to the antibiotic): 4 h
- Mean hour at which bacterial growth became visible on the wells supplemented with a certain antibiotic ([2]; naked eye examination, Method (Algorithm) #2, CA medium, samples resistant to the antibiotic): 5.5 h
- Mean hour at which bacterial growth became visible on the wells supplemented with a certain antibiotic ([2]; naked eye examination, Method (Algorithm) #2, LB medium, samples resistant to the antibiotic): 5 h
- Mean hour at which bacterial growth became visible on the wells supplemented with a certain antibiotic ([2]; naked eye examination, Method (Algorithm) #2, MM medium, samples resistant to the antibiotic): 4 h
- Mean hour at which bacterial growth became visible on the wells supplemented with a certain antibiotic ([2]; naked eye examination, Method (Algorithm) #2, PMA medium, samples resistant to the antibiotic): 4 h
- Mean hour at which bacterial growth became visible on the wells supplemented with a certain antibiotic ([2]; naked eye examination, Method (Algorithm) #2, SA medium, samples resistant to the antibiotic): 5.5 h

Molecule: CN(C/C=C/C#CC(C)(C)C)Cc1cccc2ccccc12 [Terbinafin]
- Mean hour at which fungal growth became visible on the wells supplemented with a certain antibiotic [3, 4]: 4.5 h
- Mean hour at which fungal growth became visible on the wells supplemented with a certain antibiotic [3, 5]: 5 h
- Mean hour at which fungal growth became visible on the wells supplemented with a certain antibiotic [3, 6]: 5 h
- Mean hour at which fungal growth became visible on the wells supplemented with a certain antibiotic [3, 7]: 5 h
- Mean hour at which fungal growth became visible on the wells supplemented with a certain antibiotic [3, 8]: 5 h
- Mean hour at which fungal growth became visible on the wells supplemented with a certain antibiotic [3, 9]: 4.5 h
- Mean hour at which fungal growth became visible on the wells supplemented with a certain antibiotic [3, 10]: 5.5 h
- Mean hour at which fungal growth became visible on the wells supplemented with a certain antibiotic [3, 11]: 8 h
- Mean hour at which fungal growth became visible on the wells supplemented with a certain antibiotic [3, 12]: 6.5 h
- Mean hour at which fungal growth became visible on the wells supplemented with a certain antibiotic [3, 13]: 6.5 h

Molecule: OC(Cn1cncn1)(Cn1cncn1)c1ccc(F)cc1F [Fluconazole]
- Mean hour at which fungal growth became visible on the wells supplemented with a certain antibiotic [3, 4]: 4 h
- Mean hour at which fungal growth became visible on the wells supplemented with a certain antibiotic [3, 5]: 4.5 h
- Mean hour at which fungal growth became visible on the wells supplemented with a certain antibiotic [3, 6]: 5 h
- Mean hour at which fungal growth became visible on the wells supplemented with a certain antibiotic [3, 7]: 6.5 h
- Mean hour at which fungal growth became visible on the wells supplemented with a certain antibiotic [3, 8]: 7.5 h
- Mean hour at which fungal growth became visible on the wells supplemented with a certain antibiotic [3, 9]: 5.5 h
- Mean hour at which fungal growth became visible on the wells supplemented with a certain antibiotic [3, 10]: 5.5 h
- Mean hour at which fungal growth became visible on the wells supplemented with a certain antibiotic [3, 11]: 6.5 h
- Mean hour at which fungal growth became visible on the wells supplemented with a certain antibiotic [3, 12]: 7 h
- Mean hour at which fungal growth became visible on the wells supplemented with a certain antibiotic [3, 13]: 8 h
